# Data as given in patent publication US20220274967A1, “BCAT MODULATION” (Icagen, LLC, priority 2019, published 2022).
# Columns and labels:
# [1] = target: T1, BCAT2 (Homo sapiens, UniProt O15382); experiment: BCAT2 enzyme inhibition (human); assay type: biochemical
# T1 sequence (O15382 28-392): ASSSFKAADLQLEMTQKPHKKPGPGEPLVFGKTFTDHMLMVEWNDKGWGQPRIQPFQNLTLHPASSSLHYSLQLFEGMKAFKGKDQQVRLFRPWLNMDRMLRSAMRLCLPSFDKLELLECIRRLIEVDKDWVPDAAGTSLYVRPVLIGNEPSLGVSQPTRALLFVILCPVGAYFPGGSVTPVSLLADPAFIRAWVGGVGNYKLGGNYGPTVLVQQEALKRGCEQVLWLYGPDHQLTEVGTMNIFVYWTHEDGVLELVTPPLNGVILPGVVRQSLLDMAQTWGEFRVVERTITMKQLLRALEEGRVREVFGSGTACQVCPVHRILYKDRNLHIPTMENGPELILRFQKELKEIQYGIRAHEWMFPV
# Outline: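 Cell-free coupled fluorescent assay: human BCATm converts branched-chain amino acids and α-ketoglutarate to L-glutamate, which L-glutamate oxidase and HRP link to resorufin formation from Amplex Red; activity taken as reduced glutamate signal.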
# [2] = 3-HIB assay in vitro, direct MS assay of conditioned media; assay type: cell-based, human; details: Homo sapiens, 24 h, GM00371 cells, read-out: 3HIB INHIBITION IC50 (μM) MEAN GM00371 cells Direct MS Assay
# Protocol: Cell Plating: Cells (Coriell Institute GM00371 cells) were plated (96-well clear bottom sterile plate; Greiner 655098) at 10,000 cells/0.1 mL in Eagle's minimum essential medium (EMEM)/15% FBS (Gibco 16000-044) with a Combi dispenser in a cell culture hood and incubated at 37° C. and 5% CO2 overnight.
# Compound Dilution: Compound were prepared as 33.3× intermediate dilution in DMSO in 96 well round polystyrene plates. For 30 μM final maximum start with 30 μL of 10 mM in DMSO. 10-12 1:3 serial dilutions were prepared from left to right (20 μL+40 μL DMSO). A 10× secondary dilution was prepare in EMEM by taking 7.5 μL 33.3× and transfer to replicate 96 well round polystyrene plates and then adding 242.5 μL EMEM A 1× final dilution in EMEM was prepared by taking 50 μL 10× dilution and transferring to replicate 96 well polypropylene assay block (Costar 3956) and adding 450 μL EMEM A control was prepared for maximal compound inhibition by taking 20 μL 10 mM Reference Compound A and adding 40 μL DMSO for a concentration of 3.3 mM To 7.5 μL of the 3.3 mM Reference Compound A solution and added 242.5 μL EMEM to make a 100 μM solution. The subsequent Reference Compound A solution was diluted with EMEM to achieve a final concentration of 10 μM. The structure of Reference Compound A is:
# A control was prepared for maximal compound toxicity by taking 7.5 μL Reference Compound B and 242.5 μL EMEM to make […]. 50 μL of that 100 μM Reference Compound B solution was combined with 450 μL EMEM to achieve a concentration of 30 μM. The structure of Reference Compound B is
# A DMSO Control was prepared by dilution 7.5 μL with 242.5 μL EMEM and taking 50 μL of the subsequent solution and diluting with 450 μL EMEM.
# Compound Treatment: Media was aspirated from the cells and 100 μL of D-PBS (ThermoFisher 14190144) was added and then removed. 100 μL of diluted compound was added to the cells in the place and the cells were incubated at 37° C. and 5% CO2 for 24 hours.
# Collection of Conditioned Media: For 3HIB MS detection: 20 μL conditioned media was removed from the cells and was transferred to a labeled replicate 96 well polypropylene assay plate (VWR 62408-946). And the plate was heat sealed and stored at −80° C.
# 3HIB Derivatization (Generalized SOP): The media collected for 3HIB MS detection was derivatized under the following conditions. Buffer: 0.1M 1-Ethyl-3-(3-dimethylaminopropyl)carbodiimide (EDC) dissolved in 0.1 M 2-(N-morpholino)ethanesulfonic acid ([…]) adjusted to pH 5.6. Buffer prep: weighed 10.6 g MES (Sigma #M-5287) per 500 mL HPLC grade H2O. Stored at 4° C.; 0.1M EDC: Weighed 1.971 g EDC (#E-1769) per 100 mL MES. Adjusted pH to 5.6 with ˜40 drops of 1N NaOH and stored at 4° C. Buffer has a short half-life should be used within two weeks.
# Derivatization: To 20 μL sample was added 60 μL 5 uM 3HIB-4C13 internal standard followed by 20 μL EDC in MES and 100 μL MES. The plate was sealed and incubate at 50° C. for […] then centrifuged at 4000 rpm at 6° C. for 10 minutes. LC-MS analysis was then conducted and the data was processed using standard methods.
# [3] = test system: GM00371 cells; experiment: Viability assay (Cell titer glo) in the 3-HIB assay; assay type: cell-based, human; details: Homo sapiens, 24 h, read-out: 3HIB INHIBITION IC50 (μM) MEAN GM00371 cells Viablility Assay
# Outline: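 GM00371 cells (10,000/well, EMEM/15% FBS) were exposed for 24 h at 37 °C to compounds in 1:3 serial dilution from 30 μM top concentration in EMEM. Reference Compound B at 30 μM served as maximal-toxicity control. Viability read as CellTiter-Glo luminescence.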
# [4] = target: T2, BCAT1 (Homo sapiens, UniProt P54687); experiment: BCAT1 enzyme inhibition (human), Glutamate Glo luminescence; assay type: biochemical
# T2 sequence (P54687 1-386): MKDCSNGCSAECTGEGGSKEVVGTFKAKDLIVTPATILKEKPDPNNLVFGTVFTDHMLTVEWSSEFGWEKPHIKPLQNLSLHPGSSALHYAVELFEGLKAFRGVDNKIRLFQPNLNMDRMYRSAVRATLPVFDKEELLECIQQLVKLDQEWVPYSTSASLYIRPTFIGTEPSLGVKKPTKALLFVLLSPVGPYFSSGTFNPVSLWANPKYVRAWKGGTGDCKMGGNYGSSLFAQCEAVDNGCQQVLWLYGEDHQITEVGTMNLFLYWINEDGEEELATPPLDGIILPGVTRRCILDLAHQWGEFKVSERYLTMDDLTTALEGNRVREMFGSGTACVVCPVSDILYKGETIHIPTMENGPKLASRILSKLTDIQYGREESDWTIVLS
# Protocol: The BCAT1 inhibitory activity of selected compounds of the present disclosure were also evaluated. Compounds were prepared as up to 10 mM stock solutions generally using DMSO as the vehicle. 10-point dose response curves were generated using the Echo-550 (Labcyte) acoustic dispenser. Compound source plates ([…]) were made by serially diluting compound stocks to create 1 mM, 0.1 mM, and 0.01 mM solutions in DMSO into Echo certified LDV plates. The Echo then serially spotted 100% DMSO stock solutions into source dose response plates to generate a semi-log fold dilution scheme. 100% DMSO was added to the spotted dose response plates to bring the final volume to 5 μL, creating a 333× stock plate. 120 nL of the dose response stock plate was then spotted into the assay plate. 10 μL of assay buffer (50 mM Tris with 0.05% TWEEN-20) was then added to the plates resulting in a 4× working concentration in the assay plate. Final assay test concentration range was 3 μM to 0.0001 μM with a final DMSO concentration of 0.3%.
# BCAT1 enzyme stock was first diluted to a 4× working concentration of 0.24 μg/mL in assay buffer (final assay concentration is 0.06 ug/ml). 10 μL of the 4×BCAT1 solution was then added to the previously prepared assay plate containing test compound or controls, and incubated at room temperature, protected from light, for either 10 or 60 minutes. After the compound incubation period, 20 μL of assay buffer plus 2× substrate is added to all wells (Final assay concentration of substrates is 300 μM L-leucine and 250 μM alpha-ketoglutaric acid). Enzyme reaction was then incubated for 10 minutes at room temperature. After the 10 minute incubation, the enzymatic reaction was halted with the addition of 5 μL of 0.6N HCl and incubated for 1 min. 5 μL of 1M Tris (pH 8.0) was then added to neutralize pH. 12.5 μL of the quenched assay volume was then transferred to a white, 384 well plate and 12.5 μL of Glutamate detection reagent was added (detection reagent prepared per Promega Glutamate Glo kit instructions). Plates were then incubated for 30 minutes at room temperature, protected from light. After glutamate detection incubation period, luminescence was read on BMG Novostar and relative light units was measured and exported for analysis.
# Compound modulation of BCAT1 enzymatic activity was determined as follows. IC50 values were calculated in ActivityBase, using a 4-parameter fit equation. Data was normalized to maximum inhibition form the reference agent VS558CSA (at 10 μM). Relative light units were exported for analysis and % inhibition values for each well were calculated using the following formula: […]
Compound,IC50 [1] [nM],IC50 [2] [µM],IC50 [4] [nM],IC50 [3] [µM]
CNC(=O)c1ccc2c(c1)nc(-c1ccccn1)n2[C@@H]1CCC[C@H](NC(=O)c2ccc([N+](=O)[O-])s2)C1 [Compound 107],500 to 1000,≥ 1,,≥ 1
CNC(=O)c1ccc2c(c1)nc(-c1ccccn1)n2[C@@H]1CCC[C@H](NC(=O)c2cccc(Br)c2)C1 [Compound 116],> 1000,≥ 1,,≥ 1
CNC(=O)c1ccc2c(c1)nc(-c1ccccc1SC(F)(F)F)n2[C@H]1CCC[C@@H](NC(=O)c2ccc(C#N)s2)C1 [Compound 127],500 to 1000,≥ 1,,≥ 1
CNC(=O)c1ccc2c(c1)nc(-c1ccccc1SC(F)(F)F)n2[C@H]1CCC[C@@H](NC(=O)c2ccc(Br)s2)C1 [Compound 128],500 to 1000,≥ 1,,≥ 1
CNC(=O)c1ccc2c(c1)nc(-c1ccccn1)n2[C@H]1CC[C@@H](NC(=O)c2ccc(C#N)s2)C1 [Compound 131],500 to 1000,≥ 1,,≥ 1
N#Cc1ccc(C(=O)N[C@@H]2CCC[C@H](n3c(-c4ccccn4)nc4cc(CO)ccc43)C2)s1 [Compound 133],100 to 500,≥ 1,,≥ 1
O=C(N[C@H]1CCC[C@@H](n2c(-c3ccccn3)nc3cc(C(F)(F)F)ccc32)C1)c1ccc(Br)s1 [Compound 140],100 to 500,0.5 to 1,,0.5 to 1
CNC(=O)c1ccc2c(c1)nc(-c1ccccn1)n2[C@H]1C[C@@H](NC(=O)c2ccc(Br)s2)CC(F)(F)C1 [Compound 239],100 to 500,,≥ 1000,0.1 to 0.5

# Second part, led by results:
IC50 [1] [nM],IC50 [2] [µM],IC50 [4] [nM],Compound,IC50 [3] [µM]
< 100,≥ 1,,CNC(=O)c1ccc2c(c1)nc(-c1ccccn1)n2[C@@H]1CCC[C@H](NC(=O)c2ccc(C(F)(F)F)s2)C1 [Compound 113],0.5 to 1
< 100,≥ 1,,CNC(=O)c1ccc2c(c1)nc(-c1ccccc1OC)n2[C@H]1CCC[C@@H](NC(=O)c2ccc(C#N)s2)C1 [Compound 124],≥ 1
< 100,0.1 to 0.5,,CNC(=O)c1ccc2c(c1)nc(-c1ccccc1OC)n2[C@H]1CCC[C@@H](NC(=O)c2ccc(Br)s2)C1 [Compound 126],≥ 1
100 to 500,≥ 1,,CNC(=O)c1ccc2c(c1)nc(-c1ccccc1NC(C)=O)n2[C@H]1CCC[C@@H](NC(=O)c2ccc(Br)s2)C1 [Compound 129],≥ 1
< 100,≥ 1,,CNC(=O)c1ccc2c(c1)nc(-c1ccccn1)n2[C@H]1CCC[C@@H](NC(=O)c2ccc(Cl)s2)C1 [Compound 141],≥ 1
< 100,0.1 to 0.5,,CNC(=O)c1ccc2c(c1)nc(-c1ccc(F)cc1O)n2[C@H]1CCC[C@@H](NC(=O)c2ccc(C#N)s2)C1 [Compound 188],
< 100,0.1 to 0.5,,CNC(=O)c1ccc2c(c1)nc(-c1cccs1)n2[C@H]1CCC[C@@H](NC(=O)c2ccc(Cl)s2)C1 [Compound 189],
< 100,,100 to 500,CNC(=O)c1cc2nc(-c3ccccc3F)n(C3CCC[C@@H](NC(=O)c4ccc(F)s4)C3)c2cc1F (stereo partly shown) [Compound 226],0.5 to 1
< 100,,500 to 1000,CNC(=O)c1cc2nc(-c3sccc3F)n([C@H]3CCC[C@@H](NC(=O)c4ccc(Cl)s4)C3)c2cc1F [Compound 230],≥ 1
< 100,,100 to 500,"CNC(=O)c1cc2nc(-c3ccccn3)n(C3COCC(NC(=O)c4ccc(Br)s4)C3)c2cc1F (stereo not shown) [Compound 234, 1-(5-(5-bromothiophene-2-carboxamido)tetrahydro-2H-pyran-3-yl)-6-fluoro-N-methyl-2-(pyridin-2-yl)-1H-benzo[d]imidazole-5-carboxamide]",≥ 1
< 100,,100 to 500,O=C(N[C@@H]1CCC[C@H](n2c(-c3ncccc3F)nc3cnccc32)C1)c1ccc(Br)s1 [Compound 284],≥ 1
< 100,,500 to 1000,O=C(N[C@@H]1CCC[C@H](n2c(-c3ccccc3F)nc3cccnc32)C1)c1ccc(Br)s1 [Compound 285],0.5 to 1
